Assay results: PubChem BioAssay (NCI)
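Five concentrations, 48 hours, 96-well plates. At the GI50, growth is halved. At the TGI there is no net growth.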

Tests used:
Assay in all cases: NCI-60 cell line screen, 48 h
MDA-MB-231 breast = tested on: MDA-MB-231 breast
OVCAR-8 ovarian = tested on: OVCAR-8 ovarian
MDA-MB-468 breast = tested on: MDA-MB-468 breast
UO-31 renal = tested on: UO-31 renal
DU-145 prostate = tested on: DU-145 prostate
SNB-19 CNS = tested on: SNB-19 CNS
KM12 colon = tested on: KM12 colon
U251 CNS = tested on: U251 CNS
SF-539 CNS = tested on: SF-539 CNS
MOLT-4 leukemia = tested on: MOLT-4 leukemia
HT29 colon = tested on: HT29 colon
TK-10 renal = tested on: TK-10 renal
HCT-15 colon = tested on: HCT-15 colon
RPMI-8226 leukemia = tested on: RPMI-8226 leukemia
UACC-257 melanoma = tested on: UACC-257 melanoma
NCI/ADR-RES ovarian = tested on: NCI/ADR-RES ovarian
CAKI-1 renal = tested on: CAKI-1 renal
OVCAR-3 ovarian = tested on: OVCAR-3 ovarian
HCT-116 colon = tested on: HCT-116 colon
OVCAR-4 ovarian = tested on: OVCAR-4 ovarian
A549 NSCLC = tested on: A549 NSCLC
ACHN renal = tested on: ACHN renal
PC-3 prostate = tested on: PC-3 prostate
COLO 205 colon = tested on: COLO 205 colon
786-0 renal = tested on: 786-0 renal
SNB-75 CNS = tested on: SNB-75 CNS
SW-620 colon = tested on: SW-620 colon
RXF 393 renal = tested on: RXF 393 renal
UACC-62 melanoma = tested on: UACC-62 melanoma
NCI-H226 lung = tested on: NCI-H226 lung
HS 578T breast = tested on: HS 578T breast
IGROV1 ovarian = tested on: IGROV1 ovarian
HOP-92 NSCLC = tested on: HOP-92 NSCLC
CCRF-CEM leukemia = tested on: CCRF-CEM leukemia
SK-MEL-5 melanoma = tested on: SK-MEL-5 melanoma
SN12C renal = tested on: SN12C renal
MCF7 breast = tested on: MCF7 breast
K-562 leukemia = tested on: K-562 leukemia
BT-549 breast = tested on: BT-549 breast
MDA-MB-435 = tested on: MDA-MB-435
LOX IMVI melanoma = tested on: LOX IMVI melanoma
HL-60(TB) leukemia = tested on: HL-60(TB) leukemia
SF-268 CNS = tested on: SF-268 CNS
HOP-62 NSCLC = tested on: HOP-62 NSCLC
NCI-H522 lung = tested on: NCI-H522 lung
SK-MEL-2 melanoma = tested on: SK-MEL-2 melanoma
A498 renal = tested on: A498 renal
M14 melanoma = tested on: M14 melanoma
OVCAR-5 ovarian = tested on: OVCAR-5 ovarian
SF-295 CNS = tested on: SF-295 CNS
NCI-H23 lung = tested on: NCI-H23 lung
NCI-H460 lung = tested on: NCI-H460 lung
SR leukemia = tested on: SR leukemia
T-47D breast = tested on: T-47D breast
EKVX NSCLC = tested on: EKVX NSCLC
SK-OV-3 ovarian = tested on: SK-OV-3 ovarian
HCC-2998 colon = tested on: HCC-2998 colon
SK-MEL-28 melanoma = tested on: SK-MEL-28 melanoma
MALME-3M melanoma = tested on: MALME-3M melanoma

`O=C(N=Nc1c(O)[nH]c2ccc(Cl)cc12)c1ccc2nc(-c3ccc(Cl)cc3)[nH]c2c1` was tested, and the GI50 (MDA-MB-231 breast) was 1.51 µM, the TGI (MDA-MB-231 breast) was 4.74 µM and the GI50 (OVCAR-8 ovarian) was 4.42 µM. For the same molecule, the TGI (OVCAR-8 ovarian) was > 57.7 µM, the GI50 (MDA-MB-468 breast) was 1.4 µM and the TGI (MDA-MB-468 breast) was 4.88 µM. The GI50 (UO-31 renal) was > 57.7 µM, the TGI (UO-31 renal) was > 57.7 µM and the GI50 (DU-145 prostate) was 3.74 µM. The TGI (DU-145 prostate) was > 57.7 µM, the GI50 (SNB-19 CNS) was 2.05 µM and the TGI (SNB-19 CNS) was 10.7 µM. For the same molecule, the GI50 (KM12 colon) was > 57.7 µM, the TGI (KM12 colon) was > 57.7 µM and the GI50 (U251 CNS) was 1.75 µM. It also gave a TGI (U251 CNS) of 6.46 µM, a GI50 (SF-539 CNS) of 2.11 µM and a TGI (SF-539 CNS) of 8.18 µM. The GI50 (MOLT-4 leukemia) was 1.42 µM, the TGI (MOLT-4 leukemia) was 16.5 µM and the GI50 (HT29 colon) was 2.33 µM. For the same molecule, the TGI (HT29 colon) was > 57.7 µM, the GI50 (TK-10 renal) was 40.9 µM and the TGI (TK-10 renal) was > 57.7 µM. For the same molecule, the GI50 (HCT-15 colon) was > 57.7 µM, the TGI (HCT-15 colon) was > 57.7 µM and the GI50 (RPMI-8226 leukemia) was > 57.7 µM. For the same molecule, the TGI (RPMI-8226 leukemia) was > 57.7 µM, the GI50 (UACC-257 melanoma) was 40 µM and the TGI (UACC-257 melanoma) was > 57.7 µM. For the same molecule, the GI50 (NCI/ADR-RES ovarian) was > 57.7 µM, the TGI (NCI/ADR-RES ovarian) was > 57.7 µM and the GI50 (CAKI-1 renal) was > 57.7 µM. The TGI (CAKI-1 renal) was > 57.7 µM, the GI50 (OVCAR-3 ovarian) was 5.2 µM and the TGI (OVCAR-3 ovarian) was > 57.7 µM. For the same molecule, the GI50 (HCT-116 colon) was 2.35 µM, the TGI (HCT-116 colon) was > 57.7 µM and the GI50 (OVCAR-4 ovarian) was 1.98 µM. For the same molecule, the TGI (OVCAR-4 ovarian) was 18.8 µM, the GI50 (A549 NSCLC) was 29 µM and the TGI (A549 NSCLC) was > 57.7 µM. The GI50 (ACHN renal) was 23.5 µM, the TGI (ACHN renal) was > 57.7 µM and the GI50 (PC-3 prostate) was 7.5 µM. For the same molecule, the TGI (PC-3 prostate) was > 57.7 µM, the GI50 (COLO 205 colon) was 2.27 µM and the TGI (COLO 205 colon) was 10.5 µM. For the same molecule, the GI50 (786-0 renal) was 3.08 µM, the TGI (786-0 renal) was 21.2 µM and the GI50 (SNB-75 CNS) was 1.74 µM. The TGI (SNB-75 CNS) was 14 µM, the GI50 (SW-620 colon) was 1.91 µM and the TGI (SW-620 colon) was > 57.7 µM. For the same molecule, the GI50 (RXF 393 renal) was 2.99 µM, the TGI (RXF 393 renal) was 19.4 µM and the GI50 (UACC-62 melanoma) was 4.64 µM. For the same molecule, the TGI (UACC-62 melanoma) was 26.6 µM, the GI50 (NCI-H226 lung) was 13.7 µM and the TGI (NCI-H226 lung) was > 57.7 µM. It also gave a GI50 (HS 578T breast) of 2.67 µM, a TGI (HS 578T breast) of 41.3 µM and a GI50 (IGROV1 ovarian) of 3.64 µM. The TGI (IGROV1 ovarian) was > 57.7 µM, the GI50 (HOP-92 NSCLC) was 8.67 µM and the TGI (HOP-92 NSCLC) was 39 µM. The GI50 (CCRF-CEM leukemia) was 0.969 µM, the TGI (CCRF-CEM leukemia) was 4.39 µM and the GI50 (SK-MEL-5 melanoma) was > 57.7 µM. For the same molecule, the TGI (SK-MEL-5 melanoma) was > 57.7 µM, the GI50 (SN12C renal) was 2.53 µM and the TGI (SN12C renal) was 33.2 µM. The GI50 (MCF7 breast) was 1.39 µM, the TGI (MCF7 breast) was > 57.7 µM and the GI50 (K-562 leukemia) was 1.62 µM. The TGI (K-562 leukemia) was > 57.7 µM, the GI50 (BT-549 breast) was 7.12 µM and the TGI (BT-549 breast) was 25.8 µM. The GI50 (MDA-MB-435) was 2.05 µM, the TGI (MDA-MB-435) was 13.3 µM and the GI50 (LOX IMVI melanoma) was 1.07 µM. The TGI (LOX IMVI melanoma) was 2.32 µM, the GI50 (HL-60(TB) leukemia) was 10.1 µM and the TGI (HL-60(TB) leukemia) was > 57.7 µM. For the same molecule, the GI50 (SF-268 CNS) was 1.78 µM, the TGI (SF-268 CNS) was 10.6 µM and the GI50 (HOP-62 NSCLC) was 6.93 µM. The TGI (HOP-62 NSCLC) was 24 µM, the GI50 (NCI-H522 lung) was 3.73 µM and the TGI (NCI-H522 lung) was 27.2 µM. The GI50 (SK-MEL-2 melanoma) was 41.5 µM, the TGI (SK-MEL-2 melanoma) was > 57.7 µM and the GI50 (A498 renal) was 18.4 µM. The TGI (A498 renal) was 57 µM, the GI50 (M14 melanoma) was 3.82 µM and the TGI (M14 melanoma) was > 57.7 µM. For the same molecule, the GI50 (OVCAR-5 ovarian) was 3.5 µM, the TGI (OVCAR-5 ovarian) was > 57.7 µM and the GI50 (SF-295 CNS) was 2.97 µM. It also gave a TGI (SF-295 CNS) of 20.2 µM, a GI50 (NCI-H23 lung) of 2.22 µM and a TGI (NCI-H23 lung) of 9.84 µM. For the same molecule, the GI50 (NCI-H460 lung) was 2.38 µM, the TGI (NCI-H460 lung) was > 57.7 µM and the GI50 (SR leukemia) was 3.29 µM. For the same molecule, the TGI (SR leukemia) was > 57.7 µM, the GI50 (T-47D breast) was 2 µM and the TGI (T-47D breast) was 44.3 µM. For the same molecule, the GI50 (EKVX NSCLC) was 16.6 µM, the TGI (EKVX NSCLC) was > 57.7 µM and the GI50 (SK-OV-3 ovarian) was 15.5 µM. For the same molecule, the TGI (SK-OV-3 ovarian) was > 57.7 µM, the GI50 (HCC-2998 colon) was 3.4 µM and the TGI (HCC-2998 colon) was > 57.7 µM. It also gave a GI50 (SK-MEL-28 melanoma) of 6.25 µM, a TGI (SK-MEL-28 melanoma) of 49.7 µM and a GI50 (MALME-3M melanoma) of 2.27 µM. For the same molecule, the TGI (MALME-3M melanoma) was 10.9 µM.
